{"source": "patent US20250262201A1", "about": "“COMPOUNDS AND METHODS USEFUL FOR STABILIZING PHENYLALANINE HYDROXYLASE MUTATIONS” (Agios Pharmaceuticals, Inc., priority 2022, published 2025)", "molecular_target": "T1, human PAH with the R408W mutation (Homo sapiens, UniProt P00439, R408W)", "T1 construct": "expressed in transfected cells", "T1 sequence (P00439 1-452 R408W)": "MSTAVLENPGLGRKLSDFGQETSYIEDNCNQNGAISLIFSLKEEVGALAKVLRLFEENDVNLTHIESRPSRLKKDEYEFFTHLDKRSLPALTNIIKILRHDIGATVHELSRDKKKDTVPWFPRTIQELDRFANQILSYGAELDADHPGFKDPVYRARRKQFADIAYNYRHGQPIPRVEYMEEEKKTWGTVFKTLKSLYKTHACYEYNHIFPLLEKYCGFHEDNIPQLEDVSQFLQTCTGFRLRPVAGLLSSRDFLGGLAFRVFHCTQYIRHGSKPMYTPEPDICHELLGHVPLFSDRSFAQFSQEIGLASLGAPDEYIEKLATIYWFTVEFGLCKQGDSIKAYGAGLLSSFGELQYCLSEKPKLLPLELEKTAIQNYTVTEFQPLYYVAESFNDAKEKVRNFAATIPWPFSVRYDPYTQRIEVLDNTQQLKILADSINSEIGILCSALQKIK", "test": "Cell Based Phenylalanine Flux Assay", "details": "A375 cells expressing human R408W PAH; 24 hrs compound incubation; 13C-Tyrosine by LC-MS; average where tested multiple times; read-out: AC50", "note": "Structures can show the parent of a compound that is named as a salt.", "data": [{"compound": "Cc1nc(-c2cnn(C)c2)oc1C(=O)N1CCc2[nH]cnc2[C@H]1c1ccc2ccccc2n1", "note": "[Example 26]", "values": [{"measurement": "AC50", "value": "< 500", "unit": "nM"}]}, {"compound": "O=C(c1oc(-c2ccccn2)nc1C(F)F)N1CCc2[nH]cnc2[C@@H]1c1ccc2ccccc2n1", "note": "[Example 66]", "values": [{"measurement": "AC50", "value": "1000 to 5000", "unit": "nM"}]}, {"compound": "Cn1ncnc1C(=O)N1CCc2[nH]cnc2[C@@H]1c1ccc2ccccc2n1", "note": "[Example 79]", "values": [{"measurement": "AC50", "value": "> 5000", "unit": "nM"}]}, {"compound": "Cn1cc(C(=O)N2CCc3[nH]cnc3[C@@H]2c2ccc3ccccc3n2)c(Cl)n1", "note": "[Example 87]", "values": [{"measurement": "AC50", "value": "1000 to 5000", "unit": "nM"}]}, {"compound": "O=C(c1nnc(-c2ccn(C(F)F)n2)o1)N1CCc2[nH]cnc2[C@H]1c1ccc2ccccc2n1", "note": "[Example 96]", "values": [{"measurement": "AC50", "value": "500 to 1000", "unit": "nM"}]}, {"compound": "O=C(c1nnc(C2CC2)o1)N1CCc2[nH]cnc2[C@H]1c1ncc2ccccc2n1", "note": "[Example 139, (S)-(5-cyclopropyl-1,3,4-oxadiazol-2-yl)(4-(quinazolin-2-yl)-6,7-dihydro-1H-imidazo[4,5-c]pyridin-5(4H)-yl)methanone]", "values": [{"measurement": "AC50", "value": "500 to 1000", "unit": "nM"}]}, {"compound": "O=C(c1nnc(C2CC2)o1)N1CCc2[nH]cnc2[C@@H]1c1ncc2ccccc2n1", "note": "[Example 140, (R)-(5-cyclopropyl-1,3,4-oxadiazol-2-yl)(4-(quinazolin-2-yl)-6,7-dihydro-1H-imidazo[4,5-c]pyridin-5(4H)-yl)methanone]", "values": [{"measurement": "AC50", "value": "> 5000", "unit": "nM"}]}, {"compound": "Cc1nc(C(C)(C)O)oc1C(=O)N1CCc2[nH]cnc2[C@H]1c1ncc2ccccc2n1", "note": "[Example 141, (S)-(2-(2-hydroxypropan-2-yl)-4-methyloxazol-5-yl)(4-(quinazolin-2-yl)-6,7-dihydro-1H-imidazo[4,5-c]pyridin-5(4H)-yl)methanone hydrochloride]", "values": [{"measurement": "AC50", "value": "< 500", "unit": "nM"}]}, {"compound": "Cc1nc(C(C)(C)O)oc1C(=O)N1CCc2[nH]cnc2[C@@H]1c1ncc2ccccc2n1", "note": "[Example 142, (R)-(2-(2-hydroxypropan-2-yl)-4-methyloxazol-5-yl)(4-(quinazolin-2-yl)-6,7-dihydro-1H-imidazo[4,5-c]pyridin-5(4H)-yl)methanone hydrochloride]", "values": [{"measurement": "AC50", "value": "> 5000", "unit": "nM"}]}, {"compound": "Cn1cc(-c2nnc(C(=O)N3CCc4[nH]cnc4[C@H]3c3ncc4ccccc4n3)o2)cn1", "note": "[Example 143, (S)-(5-(1-methyl-1H-pyrazol-4-yl)-1,3,4-oxadiazol-2-yl)(4-(quinazolin-2-yl)-6,7-dihydro-1H-imidazo[4,5-c]pyridin-5(4H)-yl)methanone]", "values": [{"measurement": "AC50", "value": "500 to 1000", "unit": "nM"}]}, {"compound": "Cn1cc(-c2nnc(C(=O)N3CCc4[nH]cnc4[C@@H]3c3ncc4ccccc4n3)o2)cn1", "note": "[Example 144, (R)-(5-(1-methyl-1H-pyrazol-4-yl)-1,3,4-oxadiazol-2-yl)(4-(quinazolin-2-yl)-6,7-dihydro-1H-imidazo[4,5-c]pyridin-5(4H)-yl)methanone]", "values": [{"measurement": "AC50", "value": "> 5000", "unit": "nM"}]}, {"compound": "O=C(c1nnc(-c2ccccn2)o1)N1CCc2[nH]cnc2[C@H]1c1ncc2ccccc2n1", "note": "[Example 145, (S)-(5-(pyridin-2-yl)-1,3,4-oxadiazol-2-yl)(4-(quinazolin-2-yl)-6,7-dihydro-1H-imidazo[4,5-c]pyridin-5(4H)-yl)methanone]", "values": [{"measurement": "AC50", "value": "< 500", "unit": "nM"}]}, {"compound": "O=C(c1nnc(-c2ccccn2)o1)N1CCc2[nH]cnc2[C@@H]1c1ncc2ccccc2n1", "note": "[Example 146, (R)-(5-(pyridin-2-yl)-1,3,4-oxadiazol-2-yl)(4-(quinazolin-2-yl)-6,7-dihydro-1H-imidazo[4,5-c]pyridin-5(4H)-yl)methanone]", "values": [{"measurement": "AC50", "value": "1000 to 5000", "unit": "nM"}]}, {"compound": "N#Cc1ncoc1C(=O)N1CCc2[nH]cnc2[C@H]1c1ncc2ccccc2n1", "note": "[Example 147, (S)-5-(4-(quinazolin-2-yl)-4,5,6,7-tetrahydro-1H-imidazo[4,5-c]pyridine-5-carbonyl)oxazole-4-carbonitrile]", "values": [{"measurement": "AC50", "value": "< 500", "unit": "nM"}]}, {"compound": "N#Cc1ncoc1C(=O)N1CCc2[nH]cnc2[C@@H]1c1ncc2ccccc2n1", "note": "[Example 148, (R)-5-(4-(quinazolin-2-yl)-4,5,6,7-tetrahydro-1H-imidazo[4,5-c]pyridine-5-carbonyl)oxazole-4-carbonitrile]", "values": [{"measurement": "AC50", "value": "1000 to 5000", "unit": "nM"}]}, {"compound": "O=C(c1cnco1)N1CCc2[nH]cnc2[C@H]1c1ncc2ccccc2n1", "note": "[Example 149, (S)-oxazol-5-yl(4-(quinazolin-2-yl)-6,7-dihydro-1H-imidazo[4,5-c]pyridin-5(4H)-yl)methanone]", "values": [{"measurement": "AC50", "value": "< 500", "unit": "nM"}]}, {"compound": "O=C(c1cnco1)N1CCc2[nH]cnc2[C@@H]1c1ncc2ccccc2n1", "note": "[Example 150, (R)-oxazol-5-yl(4-(quinazolin-2-yl)-6,7-dihydro-1H-imidazo[4,5-c]pyridin-5(4H)-yl)methanone]", "values": [{"measurement": "AC50", "value": "> 5000", "unit": "nM"}]}, {"compound": "O=C(c1nnc(C2CC(F)(F)C2)o1)N1CCc2[nH]cnc2[C@H]1c1ncc2ccccc2n1", "note": "[Example 151, (S)-(5-(3,3-difluorocyclobutyl)-1,3,4-oxadiazol-2-yl)(4-(quinazolin-2-yl)-6,7-dihydro-1H-imidazo[4,5-c]pyridin-5(4H)-yl)methanone]", "values": [{"measurement": "AC50", "value": "500 to 1000", "unit": "nM"}]}, {"compound": "O=C(c1nnc(C2CC(F)(F)C2)o1)N1CCc2[nH]cnc2[C@@H]1c1ncc2ccccc2n1", "note": "[Example 152, (R)-(5-(3,3-difluorocyclobutyl)-1,3,4-oxadiazol-2-yl)(4-(quinazolin-2-yl)-6,7-dihydro-1H-imidazo[4,5-c]pyridin-5(4H)-yl)methanone]", "values": [{"measurement": "AC50", "value": "> 5000", "unit": "nM"}]}, {"compound": "COCc1ccc2c(C(=O)N3CCc4[nH]cnc4[C@H]3c3ncc4ccccc4n3)cnn2c1", "note": "[Example 153]", "values": [{"measurement": "AC50", "value": "500 to 1000", "unit": "nM"}]}, {"compound": "COCc1ccc2c(C(=O)N3CCc4[nH]cnc4[C@@H]3c3ncc4ccccc4n3)cnn2c1", "note": "[Example 154, (R)-(6-(methoxymethyl)pyrazolo[1,5-a]pyridin-3-yl)(4-(quinazolin-2-yl)-6,7-dihydro-1H-imidazo[4,5-c]pyridin-5(4H)-yl)methanone]", "values": [{"measurement": "AC50", "value": "> 5000", "unit": "nM"}]}, {"compound": "CN(C)Cc1ccc2c(C(=O)N3CCc4[nH]cnc4[C@H]3c3ncc4ccccc4n3)cnn2c1", "note": "[Example 155, (S)-(6-((dimethylamino)methyl)pyrazolo[1,5-a]pyridin-3-yl)(4-(quinazolin-2-yl)-6,7-dihydro-1H-imidazo[4,5-c]pyridin-5(4H)-yl)methanone]", "values": [{"measurement": "AC50", "value": "500 to 1000", "unit": "nM"}]}, {"compound": "CN(C)Cc1ccc2c(C(=O)N3CCc4[nH]cnc4[C@@H]3c3ncc4ccccc4n3)cnn2c1", "note": "[Example 156, (R)-(6-((dimethylamino)methyl)pyrazolo[1,5-a]pyridin-3-yl)(4-(quinazolin-2-yl)-6,7-dihydro-1H-imidazo[4,5-c]pyridin-5(4H)-yl)methanone]", "values": [{"measurement": "AC50", "value": "> 5000", "unit": "nM"}]}, {"compound": "O=C(c1cnc(-c2ccccn2)o1)N1CCc2[nH]cnc2[C@@H]1c1ncc2ccccc2n1", "note": "[Example 157, (R)-(2-(pyridin-2-yl)oxazol-5-yl)(4-(quinazolin-2-yl)-6,7-dihydro-1H-imidazo[4,5-c]pyridin-5(4H)-yl)methanone]", "values": [{"measurement": "AC50", "value": "> 5000", "unit": "nM"}]}, {"compound": "O=C(c1cnc(-c2ccccn2)o1)N1CCc2[nH]cnc2[C@H]1c1ncc2ccccc2n1", "note": "[Example 158, (S)-(2-(pyridin-2-yl)oxazol-5-yl)(4-(quinazolin-2-yl)-6,7-dihydro-1H-imidazo[4,5-c]pyridin-5(4H)-yl)methanone]", "values": [{"measurement": "AC50", "value": "500 to 1000", "unit": "nM"}]}, {"compound": "O=C(c1nnc(N2CCC(F)CC2)o1)N1CCc2[nH]cnc2[C@H]1c1ncc2ccccc2n1", "note": "[Example 159, (S)-(5-(4-fluoropiperidin-1-yl)-1,3,4-oxadiazol-2-yl)(4-(quinazolin-2-yl)-6,7-dihydro-1H-imidazo[4,5-c]pyridin-5(4H)-yl)methanone]", "values": [{"measurement": "AC50", "value": "1000 to 5000", "unit": "nM"}]}, {"compound": "O=C(c1nnc(N2CCC(F)CC2)o1)N1CCc2[nH]cnc2[C@@H]1c1ncc2ccccc2n1", "note": "[Example 160, (R)-(5-(4-fluoropiperidin-1-yl)-1,3,4-oxadiazol-2-yl)(4-(quinazolin-2-yl)-6,7-dihydro-1H-imidazo[4,5-c]pyridin-5(4H)-yl)methanone]", "values": [{"measurement": "AC50", "value": "> 5000", "unit": "nM"}]}, {"compound": "CC(C)(F)c1nnc(C(=O)N2CCc3[nH]cnc3[C@H]2c2ncc3ccccc3n2)o1", "note": "[Example 161, (S)-(5-(2-fluoropropan-2-yl)-1,3,4-oxadiazol-2-yl)(4-(quinazolin-2-yl)-6,7-dihydro-1H-imidazo[4,5-c]pyridin-5(4H)-yl)methanone]", "values": [{"measurement": "AC50", "value": "500 to 1000", "unit": "nM"}]}, {"compound": "CC(C)(F)c1nnc(C(=O)N2CCc3[nH]cnc3[C@@H]2c2ncc3ccccc3n2)o1", "note": "[Example 162, (R)-(5-(2-fluoropropan-2-yl)-1,3-oxadiazol-2-yl)(4-(quinazolin-2-yl)-6,7-dihydro-1H-imidazo[4,5-c]pyridin-5(4H)-yl)methanone]", "values": [{"measurement": "AC50", "value": "> 5000", "unit": "nM"}]}, {"compound": "O=C(c1nnc(-c2ncccc2F)o1)N1CCc2[nH]cnc2[C@H]1c1ncc2ccccc2n1", "note": "[Example 163, (S)-(5-(3-fluoropyridin-2-yl)-1,3,4-oxadiazol-2-yl)(4-(quinazolin-2-yl)-6,7-dihydro-1H-imidazo[4,5-c]pyridin-5(4H)-yl)methanone]", "values": [{"measurement": "AC50", "value": "< 500", "unit": "nM"}]}, {"compound": "O=C(c1nnc(-c2ncccc2F)o1)N1CCc2[nH]cnc2[C@@H]1c1ncc2ccccc2n1", "note": "[Example 164, (R)-(5-(3-fluoropyridin-2-yl)-1,3,4-oxadiazol-2-yl)(4-(quinazolin-2-yl)-6,7-dihydro-1H-imidazo[4,5-c]pyridin-5(4H)-yl)methanone]", "values": [{"measurement": "AC50", "value": "> 5000", "unit": "nM"}]}, {"compound": "Cn1ccc(-c2nnc(C(=O)N3CCc4[nH]cnc4[C@H]3c3ncc4ccccc4n3)o2)n1", "note": "[Example 165, (S)-(5-(1-methyl-1H-pyrazol-3-yl)-1,3,4-oxadiazol-2-yl)(4-(quinazolin-2-yl)-6,7-dihydro-1H-imidazo[4,5-c]pyridin-5(4H)-yl)methanone]", "values": [{"measurement": "AC50", "value": "500 to 1000", "unit": "nM"}]}, {"compound": "Cn1ccc(-c2nnc(C(=O)N3CCc4[nH]cnc4[C@@H]3c3ncc4ccccc4n3)o2)n1", "note": "[Example 166, (R)-(5-(1-methyl-1H-pyrazol-3-yl)-1,3,4-oxadiazol-2-yl)(4-(quinazolin-2-yl)-6,7-dihydro-1H-imidazo[4,5-c]pyridin-5(4H)-yl)methanone]", "values": [{"measurement": "AC50", "value": "1000 to 5000", "unit": "nM"}]}]}
